Measurements: ChEMBL document CHEMBL1201862, “PubChem BioAssay data set” (2004)
Each block holds one molecule with its values, some of them ahead of it. Active and inactive are the calls of the source.

Legend:
Estrogen receptor = target: T1, Estrogen receptor (Homo sapiens, UniProt P03372);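 also: potency for inhibiting coactivator peptide recruitment to the receptor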
T1 sequence (P03372 whole entry): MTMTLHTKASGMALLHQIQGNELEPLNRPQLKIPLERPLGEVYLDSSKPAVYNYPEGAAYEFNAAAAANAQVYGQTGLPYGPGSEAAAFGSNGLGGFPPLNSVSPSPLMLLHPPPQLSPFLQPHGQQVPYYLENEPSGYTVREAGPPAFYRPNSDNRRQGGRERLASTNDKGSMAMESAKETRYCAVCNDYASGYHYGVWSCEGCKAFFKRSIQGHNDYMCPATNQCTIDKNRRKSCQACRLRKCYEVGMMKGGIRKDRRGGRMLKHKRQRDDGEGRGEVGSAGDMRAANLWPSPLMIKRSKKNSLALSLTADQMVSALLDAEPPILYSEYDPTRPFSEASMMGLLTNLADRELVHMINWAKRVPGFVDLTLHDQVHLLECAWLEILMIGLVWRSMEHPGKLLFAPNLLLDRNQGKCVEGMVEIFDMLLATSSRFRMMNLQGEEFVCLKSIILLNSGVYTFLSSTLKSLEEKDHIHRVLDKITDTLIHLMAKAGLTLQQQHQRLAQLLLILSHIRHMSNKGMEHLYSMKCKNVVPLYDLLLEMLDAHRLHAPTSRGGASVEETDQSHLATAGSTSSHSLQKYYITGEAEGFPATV

Bcl-2-like protein 10 = target: T2, Bcl-2-like protein 10 (Homo sapiens, UniProt Q9HD36); experiment: Bcl-B/TR3 peptide binding disruption – biochemical, fluorescence polarization, FITC-TR3 peptide, selectivity assay for Bfl-1 inhibitor project, primary screen (AID 748);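 also: fluorescence polarization from a fluorescein-labelled TR3 peptide binding purified Bcl-B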
T2 sequence (Q9HD36 whole entry): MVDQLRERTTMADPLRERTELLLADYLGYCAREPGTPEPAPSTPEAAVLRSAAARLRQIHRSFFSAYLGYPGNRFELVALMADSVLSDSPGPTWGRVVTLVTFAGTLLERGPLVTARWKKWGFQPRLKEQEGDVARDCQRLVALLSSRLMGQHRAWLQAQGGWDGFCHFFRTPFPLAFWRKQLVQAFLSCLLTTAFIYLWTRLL

Protein Tat = target: T3, Protein Tat (Human immunodeficiency virus type 1 group M subtype B (isolate HXB2)(HIV-1), UniProt P04608); type: functional;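 also: tat binding to TAR RNA read out by fluorescence polarization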
T3 sequence (P04608 whole entry): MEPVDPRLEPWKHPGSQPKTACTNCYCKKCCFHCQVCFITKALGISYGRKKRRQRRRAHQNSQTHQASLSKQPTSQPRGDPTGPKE

Estrogen receptor beta [1] = target: T4, Estrogen receptor beta (Homo sapiens, UniProt Q92731); experiment: blockers of SRC-3 recruitment to ERβ – biochemical, ELISA, streptavidin-HRP readout, orthogonal assay, confirmation (AID 1060)
T4 sequence (Q92731 whole entry): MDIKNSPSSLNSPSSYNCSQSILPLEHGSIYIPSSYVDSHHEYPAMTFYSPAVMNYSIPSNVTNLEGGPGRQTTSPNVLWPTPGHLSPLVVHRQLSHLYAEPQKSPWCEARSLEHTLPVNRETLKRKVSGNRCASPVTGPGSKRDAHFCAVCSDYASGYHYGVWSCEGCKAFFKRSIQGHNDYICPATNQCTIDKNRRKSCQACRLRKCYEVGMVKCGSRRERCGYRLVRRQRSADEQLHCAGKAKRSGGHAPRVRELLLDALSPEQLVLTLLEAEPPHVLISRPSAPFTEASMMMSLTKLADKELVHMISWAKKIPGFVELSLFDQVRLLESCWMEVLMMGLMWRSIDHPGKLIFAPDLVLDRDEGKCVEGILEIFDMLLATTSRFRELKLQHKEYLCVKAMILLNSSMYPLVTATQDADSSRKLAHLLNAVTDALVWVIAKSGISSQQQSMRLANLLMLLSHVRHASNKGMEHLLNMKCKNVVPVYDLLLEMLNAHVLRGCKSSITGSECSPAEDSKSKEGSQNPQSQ

[2] = viability loss of HPDE-C7K cells – cell-based, fluorescence, HTS, primary screen (AID 431); type: functional; details: Homo sapiens
[3] = target: DNA dC->dU-editing enzyme APOBEC-3G (Homo sapiens, UniProt Q9HC16); type: functional;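 also: Dose-response counterscreen measuring inhibition of APOBEC3G DNA deaminase activity, run while confirming APOBEC3A inhibitors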
Sequence of DNA dC->dU-editing enzyme APOBEC-3G (Q9HC16 whole entry): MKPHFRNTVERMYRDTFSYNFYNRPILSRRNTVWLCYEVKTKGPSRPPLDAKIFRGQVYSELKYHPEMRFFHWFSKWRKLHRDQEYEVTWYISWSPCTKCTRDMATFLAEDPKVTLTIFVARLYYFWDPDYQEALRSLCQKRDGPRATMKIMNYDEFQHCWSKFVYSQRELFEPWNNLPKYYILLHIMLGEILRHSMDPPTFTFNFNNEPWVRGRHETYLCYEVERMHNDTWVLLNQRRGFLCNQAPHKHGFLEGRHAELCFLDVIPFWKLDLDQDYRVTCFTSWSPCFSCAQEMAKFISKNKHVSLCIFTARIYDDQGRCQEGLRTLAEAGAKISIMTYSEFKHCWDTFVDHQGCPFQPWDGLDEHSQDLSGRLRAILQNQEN

Estrogen receptor beta [4] = target: T4, Estrogen receptor beta
[5] = target: DNA dC->dU-editing enzyme APOBEC-3A (Homo sapiens, UniProt P31941); experiment: Dose Response confirmation of small molecule APOBEC3A DNA Deaminase Inhibitors via a fluorescence-based single-stranded DNA deaminase assay. [Related pubchem assays (depositor defined):AID493011, AID493024]; type: functional
Sequence of DNA dC->dU-editing enzyme APOBEC-3A (P31941 whole entry): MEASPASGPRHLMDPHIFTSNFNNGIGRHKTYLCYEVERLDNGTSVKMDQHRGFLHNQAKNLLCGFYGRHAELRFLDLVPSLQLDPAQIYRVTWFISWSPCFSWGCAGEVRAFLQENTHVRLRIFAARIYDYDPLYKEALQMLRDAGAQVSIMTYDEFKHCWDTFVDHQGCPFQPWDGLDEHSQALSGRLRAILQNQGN

[6] = HPDE-C7 pancreatic duct cell viability loss – fluorescence, HTS (AID 430); type: functional, cell-based; details: Homo sapiens
Coagulation factor XII = Coagulation factor XII (Homo sapiens, UniProt P00748); type: functional;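 also: activated factor XIIa alpha cleaving a fluorogenic AMC peptide substrate; inhibitor potency from loss of enzyme activity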
Sequence of Coagulation factor XII (P00748 20-372 limits assumed): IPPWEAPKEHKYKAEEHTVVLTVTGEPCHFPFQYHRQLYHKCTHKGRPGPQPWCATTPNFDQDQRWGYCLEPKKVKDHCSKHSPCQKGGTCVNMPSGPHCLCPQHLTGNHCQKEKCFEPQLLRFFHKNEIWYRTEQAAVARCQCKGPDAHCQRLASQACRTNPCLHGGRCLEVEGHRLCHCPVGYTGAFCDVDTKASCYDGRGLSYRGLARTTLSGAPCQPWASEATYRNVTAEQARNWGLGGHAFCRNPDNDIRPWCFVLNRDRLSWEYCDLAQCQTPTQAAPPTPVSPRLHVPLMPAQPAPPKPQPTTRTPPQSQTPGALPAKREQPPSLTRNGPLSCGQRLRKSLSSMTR
Sequence of Coagulation factor XII (P00748 373-615 limits assumed): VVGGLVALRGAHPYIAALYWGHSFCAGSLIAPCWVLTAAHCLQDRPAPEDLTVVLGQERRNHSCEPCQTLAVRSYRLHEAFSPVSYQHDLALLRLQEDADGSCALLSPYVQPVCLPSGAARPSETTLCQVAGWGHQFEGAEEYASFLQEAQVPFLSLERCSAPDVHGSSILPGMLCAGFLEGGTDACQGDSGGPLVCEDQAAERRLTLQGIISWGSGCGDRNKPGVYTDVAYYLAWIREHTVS

[7] = target: Alkaline phosphatase, placental type (Homo sapiens, UniProt P05187); experiment: human placental alkaline phosphatase inhibition – biochemical, luminescence, confirmation (AID 1512); type: functional
Sequence of Alkaline phosphatase, placental type (P05187 whole entry): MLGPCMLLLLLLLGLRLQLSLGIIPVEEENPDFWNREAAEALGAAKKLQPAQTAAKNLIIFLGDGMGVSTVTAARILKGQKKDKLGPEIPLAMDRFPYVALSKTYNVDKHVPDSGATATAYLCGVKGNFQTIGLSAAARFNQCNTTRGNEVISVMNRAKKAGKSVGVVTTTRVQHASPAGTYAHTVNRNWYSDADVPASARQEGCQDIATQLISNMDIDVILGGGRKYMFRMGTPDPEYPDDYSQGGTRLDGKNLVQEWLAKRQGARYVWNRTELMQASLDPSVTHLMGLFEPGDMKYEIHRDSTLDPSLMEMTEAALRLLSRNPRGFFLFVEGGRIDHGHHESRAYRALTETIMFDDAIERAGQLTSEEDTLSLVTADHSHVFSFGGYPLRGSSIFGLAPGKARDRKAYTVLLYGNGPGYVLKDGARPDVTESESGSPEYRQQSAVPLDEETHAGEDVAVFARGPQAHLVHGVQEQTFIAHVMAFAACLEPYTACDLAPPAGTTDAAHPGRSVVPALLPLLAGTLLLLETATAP

[8] = target: T5, Alkaline phosphatase, tissue-nonspecific isozyme (Homo sapiens, UniProt P05186); experiment: potency against alkaline phosphatase TNAP – biochemical, luminescent, dose response, SAR follow-up (AID 1056)
T5 sequence (P05186 whole entry): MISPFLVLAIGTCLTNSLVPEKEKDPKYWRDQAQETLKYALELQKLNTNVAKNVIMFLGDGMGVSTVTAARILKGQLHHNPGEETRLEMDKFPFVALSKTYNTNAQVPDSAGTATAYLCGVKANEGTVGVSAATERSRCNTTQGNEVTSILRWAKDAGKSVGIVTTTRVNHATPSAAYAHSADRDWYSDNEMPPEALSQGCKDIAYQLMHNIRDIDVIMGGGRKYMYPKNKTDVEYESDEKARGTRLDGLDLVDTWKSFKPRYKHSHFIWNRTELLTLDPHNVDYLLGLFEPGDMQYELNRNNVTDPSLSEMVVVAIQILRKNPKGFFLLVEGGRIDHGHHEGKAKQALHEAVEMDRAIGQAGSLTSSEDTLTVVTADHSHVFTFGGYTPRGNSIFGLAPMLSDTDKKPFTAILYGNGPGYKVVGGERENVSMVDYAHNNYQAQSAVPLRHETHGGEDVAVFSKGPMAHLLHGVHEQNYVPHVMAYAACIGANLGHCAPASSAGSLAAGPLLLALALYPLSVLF

[9] = target: Glyceraldehyde-3-phosphate dehydrogenase (Homo sapiens, UniProt P04406)
Sequence of Glyceraldehyde-3-phosphate dehydrogenase (P04406 whole entry): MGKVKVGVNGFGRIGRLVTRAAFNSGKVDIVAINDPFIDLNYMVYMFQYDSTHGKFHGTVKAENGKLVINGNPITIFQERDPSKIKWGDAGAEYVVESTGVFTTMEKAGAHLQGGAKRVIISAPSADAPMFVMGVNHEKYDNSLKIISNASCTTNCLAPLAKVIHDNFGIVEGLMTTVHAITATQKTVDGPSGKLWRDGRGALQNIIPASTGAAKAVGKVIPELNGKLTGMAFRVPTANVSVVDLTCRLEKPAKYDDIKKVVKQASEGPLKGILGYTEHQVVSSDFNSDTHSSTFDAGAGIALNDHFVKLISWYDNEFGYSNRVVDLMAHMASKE

[10] = target: Polyadenylate-binding protein 1 (Homo sapiens, UniProt P11940); experiment: blockers of PABP interaction with poly(A) – biochemical, fluorescence polarization, […] (AID 2014)
Sequence of Polyadenylate-binding protein 1 (P11940 whole entry): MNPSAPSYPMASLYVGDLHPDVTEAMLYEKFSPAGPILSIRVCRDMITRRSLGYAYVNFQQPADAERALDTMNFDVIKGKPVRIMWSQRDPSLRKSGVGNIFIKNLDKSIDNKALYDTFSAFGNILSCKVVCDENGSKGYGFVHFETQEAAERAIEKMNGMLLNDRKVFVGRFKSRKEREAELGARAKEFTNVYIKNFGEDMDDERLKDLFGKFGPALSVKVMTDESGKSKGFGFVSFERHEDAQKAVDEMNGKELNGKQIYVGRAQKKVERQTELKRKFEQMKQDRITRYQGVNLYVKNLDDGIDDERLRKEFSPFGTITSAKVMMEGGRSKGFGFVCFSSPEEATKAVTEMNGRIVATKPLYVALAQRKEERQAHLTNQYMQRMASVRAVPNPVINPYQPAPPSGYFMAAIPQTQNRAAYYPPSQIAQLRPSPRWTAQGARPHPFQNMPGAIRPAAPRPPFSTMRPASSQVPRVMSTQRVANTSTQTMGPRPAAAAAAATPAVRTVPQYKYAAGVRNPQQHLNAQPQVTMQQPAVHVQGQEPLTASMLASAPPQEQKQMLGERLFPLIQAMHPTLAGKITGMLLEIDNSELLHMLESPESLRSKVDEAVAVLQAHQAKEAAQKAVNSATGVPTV

[11] = target: Eukaryotic translation initiation factor 4H (Homo sapiens, UniProt Q15056); experiment: eIF4H binding inhibition – biochemical, uHTS, fluorescence polarization, translation initiation inhibitor project, primary screen (AID 2012)

SMILES: COc1ccc2c(c1)c(=O)oc1cc(OCC(=O)N3CCC(C)CC3)ccc12
IC50 (Estrogen receptor): 11.7 µM (active)
IC50 (Bcl-2-like protein 10): 31.8 µM (active)
IC50 (Protein Tat): > 100 µM (active)
IC50 (Estrogen receptor beta [1]): 14.3 µM (not active)
EC50 [2]: > 20 µM (not active)
IC50 [3]: > 100 µM (inactive)
IC50 (Estrogen receptor beta [4]): 5.31 µM (active)
IC50 [5]: 21.6 µM (active)
EC50 [6]: > 20 µM (not active)

IC50 (Coagulation factor XII): > 50 µM (inactive)
SMILES: COc1cccc(NC(C(=O)Nc2cccc(C(C)=O)c2)c2ccccc2)c1 (configuration not stated)

IC50 [7]: > 100 µM (inactive)
IC50 [8]: 14.4 µM (active)
IC50 [9]: > 100 µM (not active)
SMILES: Cc1n[nH]c2c1C(=O)CC(c1ccc(F)cc1)C2 (configuration not stated)

SMILES: CCCn1c2c(c(=N)c3c1CCC3)CCC2
IC50 [3]: 2.66 µM (active)
IC50 [5]: 2.76 µM (active)
IC50 [10]: 4.08 µM (active)
IC50 [11]: > 100 µM (inactive)
